Measurements reported in publication PMC3471066, “The Inhibitory Effect of Prunella vulgaris L. on Aldose Reductase and Protein Glycation” (Journal of Biomedicine and Biotechnology, 2012).
Like-named read-outs stand apart in the source and are kept apart here.

Legend:
[1] = Effects on AGEs formation (BSA-methylglyoxal, fluorescence); format: biochemical
Description: The modified procedure of Lee et al. was followed. Bovine serum albumin (10 mg/mL) was incubated with 5 mM methylglyoxal in sodium phosphate buffer (100 mM; pH 7.4). […] All of the reagent and samples were sterilized by filtration through 0.2 μM membrane filters, and the mixture was incubated at 37°C for 7 days. The fluorescence intensity was measured at an excitation wavelength of 330 nm and an emission wavelength of 410 nm with a LS50B fluorescence spectrometer (Perkin-Elmer Ltd., USA). Aminoguanidine was also tested as a known inhibitor.

rat erythrocyte = assay: Blood culture (erythrocyte) and intracellular galactitol measurement; format: cell-based; details: for Rat erythrocyte galactitol content: 30 mM galactose, 5 μg/mL compound, 3 h; for inhibition at 5 µg/mL: Rattus norvegicus, Erythrocyte, 5 μg/mL, read-out: inhibition of galactitol accumulation in rat erythrocyte
Description: Blood sample was collected in heparin-containing polypropylene tube from 10-week-old male rats. For sugar and sugar alcohol analysis, erythrocytes from heparinized blood were separated from the plasma and buffy coat by centrifuging at 2000×g for 10 min. The cells were washed thrice with normal saline (0.9% NaCl) at 4°C. In the final washing, the cells were centrifuged at 2000 ×g for 10 min to obtain a consistently packed cell preparation. The packed cells (1 mL) were then incubated in a Krebs-Ringer bicarbonate buffer (pH 7.4) containing 30 mM galactose in the presence or absence of samples at 37°C in 5% CO2 for 3 h. The erythrocytes were washed with cold saline by centrifuging at 2000 ×g for 10 min, precipitated by adding 6% of cold perchloric acid (3 mL), and centrifuged again at 2000 ×g for 10 min. The supernatant was neutralized with 2.5 M K2CO3 at 4°C and used for galactitol determination. HPLC analysis for sugar and sugar alcohol in blood was performed with this supernatant of red blood cell homogenate after being benzoylated.

[2] = target: T1, rat lens aldose reductase (rAR) (Rattus norvegicus, UniProt P07943); assay: Rat lens aldose reductase (rAR) inhibition, NADPH decrease at 340 nm; format: biochemical
T1 construct: from tissue; host or cells: lens of Sprague-Dawley rats (homogenate supernatant)

ABTS•+ assay = assay: ABTS•+ assay
Description: The method of Re et al. was used with slight modification. The ABTS diammonium salt (2 mM) and potassium persulfate (3.5 mM) were mixed and diluted in distilled water kept in the dark at room temperature for 24 h before use. After addition of ABTS^•+ solution to 10 μL of antioxidant compounds were recorded at after 10 min reaction. The percentage inhibition of absorbance at 750 nm is calculated and potted as a function of concentration of antioxidants. Trolox was used as positive control.

[3] = target: T2, human recombinant aldose reductase (rhAR) (Homo sapiens, UniProt P15121); assay: Human recombinant aldose reductase (rhAR) inhibition; format: biochemical
T2 construct: purchased Wako Pure Chemical Industries (Osaka, Japan)

[4] = target: T2, human recombinant aldose reductase (rhAR); assay: Kinetics of rhAR inhibition, Lineweaver-Burk plots; format: biochemical; details: DL-glyceraldehyde 0.1-1 mM
Description: Reaction mixtures consisted of 0.1 M potassium phosphate, 0.16 mM NADPH, 2 mM of recombinant human aldose reductase (rhAR) with varied concentrations of substrate DL-glyceraldehyde and AR inhibitor in a total volume of 200 μL. Concentrations were ranged from 0.1 to 1 mM for DL-glyceraldehyde, and from 0.1 to 1 mM for active compound. Recombinant human aldose reductase activity was assayed spectrophotometrically by measuring the decrease in absorption of NADPH at 340 nm after substrate addition using Bio Tek Power Wave XS spectrophotometer (Bio Tek Instruments, VT, USA).

rat lenses = assay: Lens culture and intracellular galactitol measurement; format: cell-based; details: for Galactitol content in rat lens: 30 mM galactose, 5 μg/mL compound, 6 d; for inhibition at 5 µg/mL: Rattus norvegicus, 5 μg/mL, read-out: inhibition of galactitol accumulation in rat lenses
Description: Lenses isolated from 10-week-old male rats were cultured for 6 d in TC-199 medium that contained 15% fetal bovine serum 100 units/mL penicillin and 0.1 mg/mL streptomycin under sterile conditions in an atmosphere of 5% CO2 and 95% air at 37°C. Samples were dissolved in dimethyl sulfoxide. The lenses were divided into 5 groups and cultured in medium containing 5 mM glucose, 30 mM galactose, and rosmarinic acid or caffeic acid ethylene ester. Each lens was placed in well containing 1.0 mL of medium. Galactitol was determined by HPLC after its derivatization by reaction with benzoic acid to a fluorescent compound [20].

Row | Structure (SMILES) | IC50 [1] [µM] | Inhibition (%) of AGEs ([1]; 19.61 μg/mL) [%] | Rat erythrocyte galactitol content (rat erythrocyte) [µM] | inhibition at 5 µg/mL (rat erythrocyte) [%] | IC50 (ABTS•+ assay) [µM] | Inhibition (%) of ABTS•+ (ABTS•+ assay; 0.33 μg/mL) [%] | Inhibition (%) of ABTS•+ (ABTS•+ assay; 1.67 μg/mL) [%] | Inhibition (%) of ABTS•+ (ABTS•+ assay; 3.33 μg/mL) [%] | Galactitol content in rat lens (rat lenses) | inhibition at 5 µg/mL (rat lenses) [%] | other results
1 | N=C(N)NN [Aminoguanidine, reference compound] | 1945 ± 8.39 | 3.96 ± 0.06 |  |  |  |  |  |  |  |  | AGEs IC50 [1]: 143.92 ± 0.62 µg/mL; Inhibition (%) of AGEs ([1]; 98.04 μg/mL): 37.39 ± 0.52%; Inhibition (%) of AGEs ([1]; 196.08 μg/mL): 66.85 ± 0.13%
2 | O=C(/C=C/c1ccc(O)c(O)c1)O[C@H](Cc1ccc(O)c(O)c1)C(=O)O [Compound 4, rosmarinic acid] |  | 20.67 ± 0.37 | 15.05 ± 0.30 | ~35.5 | 8.79 ± 0.1 | 9.93 ± 0.27 | 36.50 ± 0.78 | 78.40 ± 1.17 | 532.38 ± 6.56 μg/lens wet weight (g) | ~36.9 | IC50 ([2]; rAR IC50): 2.77 ± 0.48 µM; IC50 [3]: 18.6 ± 0.4 µM; inhibition type of rhAR [4]: noncompetitive
3 | C=COC(=O)/C=C/c1ccc(O)c(O)c1 [Compound 5, caffeic acid ethylene ester] | 33.2 ± 0.54 |  | 15.89 ± 0.41 | ~31.7 | 10.5 ± 0.28 | 13.00 ± 0.13 | 50.17 ± 1.75 | 84.68 ± 1.41 | 653.76 ± 4.68 μg/lens wet weight (g) | ~22.5 | IC50 ([2]; read-out: rAR IC50): 3.2 ± 0.55 µM; IC50 [3]: 12.6 ± 0.32 µM; inhibition type of rhAR [4]: noncompetitive inhibition; inhibition type of rhAR ([4]; listed as caffeic acid ethylene ester (5)): noncompetitive; Inhibition (%) of AGEs ([1]; 1.96 μg/mL): 9.00 ± 0.43%; Inhibition (%) of AGEs ([1]; 4.9 μg/mL): 33.94 ± 0.94%; Inhibition (%) of AGEs ([1]; 9.8 μg/mL): 74.81 ± 1.41%
4 | O=C(O)c1ccc(O)c(O)c1 [Compound 2, protocatechuic acid] |  |  |  |  | 11.6 ± 0.22 | 14.90 ± 0.34 | 53.79 ± 0.92 | 93.42 ± 0.58 |  |  | 
5 | O=C(O)C=Cc1ccc(O)cc1 [Compound 3, p-hydroxycinnamic acid] |  |  |  |  | 5.94 ± 1.01 |  | 47.60 ± 1.35 | 59.65 ± 1.39 |  |  | IC50 ([2]; read-out: rAR IC50): 8.35 ± 0.51 µM; Inhibition (%) of ABTS•+ (ABTS•+ assay; 8.33 μg/mL): 74.05 ± 0.69%
6 | O=c1c(O)c(-c2ccc(O)c(O)c2)oc2cc(O)cc(O)c12 [Quercetin, quercetin, reference compound] |  |  | 16.15 ± 0.39 | 30.5 |  |  |  |  | 448.81 ± 3.38 μg/lens wet weight (g) | 46.8 | inhibition at 1 µg/mL ([2]; 1 μg/mL): 44.7 ± 1.39%; inhibition at 5 µg/mL ([2]; 5 μg/mL): 64.7 ± 1.56%; inhibition at 10 µg/mL ([2]; 10 μg/mL): 75.33 ± 0.55%
7 | Cc1c(C)c2c(c(C)c1O)CCC(C)(C(=O)O)O2 (stereo not shown) [Trolox, reference compound] |  |  |  |  | 15.3 ± 0.4 |  | 21.76 ± 1.15 | 45.48 ± 1.20 |  |  | ABTS•+ IC50 (ABTS•+ assay): 3.84 ± 0.10 µg/mL; Inhibition (%) of ABTS•+ (ABTS•+ assay; 16.67 μg/mL): 99.44 ± 0.20%
8 | O=Cc1ccc(O)c(O)c1 [Compound 6, protocatechualdehyde] | 304 ± 3.41 | 9.85 ± 0.16 |  |  | 12.4 ± 0.33 | 13.73 ± 0.37 | 52.73 ± 0.93 | 92.80 ± 1.50 |  |  | Inhibition (%) of AGEs ([1]; 49.02 μg/mL): 63.45 ± 1.16%; Inhibition (%) of AGEs ([1]; 98.04 μg/mL): 88.69 ± 0.56%
9 | O=C(O)/C=C/c1ccc(O)c(O)c1 [Compound 1, caffeic acid] |  | 9.33 ± 0.27 |  |  | 12 ± 0.24 | 11.33 ± 0.31 | 34.65 ± 1.03 | 75.14 ± 1.08 |  |  | 
